Laboratory results published in PubChem BioAssay AID504760 (National Center for Advancing Translational Sciences (NCATS), 2011).

Test system: mouse plasma stability, LC-MS/MS, 48 h
Assay: Inhibitors of Cruzain: Mouse Plasma Stability Profiling
Details: at 2 µM; stronger effect = higher value
Description: Chagas Disease is a neglected tropical disease that affects over 16 million people in Latin America. The cysteine protease cruzain is essential for the survival Trypanosoma cruzi, the parasitic agent responsible for Chagas disease. Potential intervention for T. cruzi includes the inhibition of cruzain. This bioassay will summarize the ongoing development of small molecule cruzain inhbitiors. Currently, a screen of ~200k compounds and through extensive follow-up work a probe was identified. To further characterize the probe, it was tested in in vitro ADME assays. The stability of the lead compound in mouse plasma is tested because this parameter has a significant impact on many ADME-concerned properties of drugs, such as uptake, distribution, transport, and bioavailability. NIH Chemical Genomics Center [NCGC] NIH Molecular Libraries Probe Production Centers Network [MLPCN] MLSCN Grant: DA024891-01 PI Name: Dr. Brian Shoichet; University of California, San Francisco
2uM of compound is incubated in mouse plasma; the reference compound is procaine. Compounds are incubated at 37 deg C for the pre-determined time periods and the when aliquots are removed. Samples are analyzed with LC-MS/MS.

With Cc1ccc(OCCn2c(CCNC(=O)C3CCCCC3)nc3ccccc32)cc1 as the compound, how does the percent remaining read?
Its percent remaining is 95%.
